Among the data in patent US20230127326A1, “C3-SUBSTITUTED 1H-PYRAZOLO[4,3-d]PYRIMIDINE COMPOUNDS AS TOLL-LIKE RECEPTOR 7 (TLR7) AGONISTS” (BRISTOL-MYERS SQUIBB COMPANY, priority 2020, published 2023) are EC50 values, retold here.

Broadly, the EC50 is the concentration giving half of the maximal effect.

One experiment addresses T1, human TLR7 (Homo sapiens, UniProt Q9NYK1).
T1 construct: host or cells: HEK-Blue TLR7 cells (engineered human embryonic kidney cells)
T1 sequence (Q9NYK1 27-1049): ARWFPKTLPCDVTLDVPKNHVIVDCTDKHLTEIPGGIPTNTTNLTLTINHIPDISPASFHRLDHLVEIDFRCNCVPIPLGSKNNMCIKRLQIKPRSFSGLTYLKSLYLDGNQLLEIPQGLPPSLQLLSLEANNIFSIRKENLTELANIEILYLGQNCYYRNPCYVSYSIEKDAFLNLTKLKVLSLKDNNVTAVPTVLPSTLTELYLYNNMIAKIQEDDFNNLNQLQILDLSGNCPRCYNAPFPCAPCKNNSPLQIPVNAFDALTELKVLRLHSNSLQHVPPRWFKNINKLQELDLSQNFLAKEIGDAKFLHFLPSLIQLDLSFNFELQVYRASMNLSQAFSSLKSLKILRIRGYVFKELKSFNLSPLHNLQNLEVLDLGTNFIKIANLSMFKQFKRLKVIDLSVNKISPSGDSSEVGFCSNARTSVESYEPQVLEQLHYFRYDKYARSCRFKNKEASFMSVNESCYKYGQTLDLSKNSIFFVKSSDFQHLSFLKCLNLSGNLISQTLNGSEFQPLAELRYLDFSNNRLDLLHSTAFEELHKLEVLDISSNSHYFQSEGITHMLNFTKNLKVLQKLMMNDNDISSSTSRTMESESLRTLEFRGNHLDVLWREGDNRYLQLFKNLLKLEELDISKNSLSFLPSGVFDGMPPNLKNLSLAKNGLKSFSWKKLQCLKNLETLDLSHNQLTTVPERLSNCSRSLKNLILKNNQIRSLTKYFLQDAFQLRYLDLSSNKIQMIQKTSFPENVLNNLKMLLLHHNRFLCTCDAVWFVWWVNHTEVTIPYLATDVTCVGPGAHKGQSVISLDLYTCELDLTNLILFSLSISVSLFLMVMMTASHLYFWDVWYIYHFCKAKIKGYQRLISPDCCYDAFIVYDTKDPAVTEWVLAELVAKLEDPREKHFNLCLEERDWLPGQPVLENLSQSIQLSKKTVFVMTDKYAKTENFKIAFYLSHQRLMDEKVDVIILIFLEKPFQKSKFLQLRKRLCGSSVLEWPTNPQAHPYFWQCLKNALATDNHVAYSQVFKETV
The experiment can be described thus: Human TLR7 agonist activity reporter assay (HEK-Blue TLR7 cells, SEAP reporter). Format: cell-based. Particulars: 18 h treatment, average where assay was performed multiple times, read-out: hTLR7 Agonism EC50. As for the experimental part:
This procedure describes a method for assaying human TLR7 (hTLR7) agonist activity of the compounds disclosed in this specification.
HEK-Blue™ TLR7 cells were added to each well of a 384-well tissue-culture plate (15,000 cells per well) and incubated 16-18 h at 37° C., 5% CO2. Compounds (100 nl) were dispensed into wells containing the HEK-Blue™ TLR cells and the treated cells were incubated at 37° C., 5% CO2. After 18 h treatment ten microliters of freshly-prepared Quanti-Blue™ reagent (Invivogen) was added to each well, incubated for 30 min (37° C., 5% CO2) and SEAP levels measured using an Envision plate reader (OD=620 nm). The half maximal effective concentration values (EC50; compound concentration which induced a response halfway between the assay baseline and maximum) were calculated.
Background: Reporter assays use an easily measured gene product as a stand-in for the process of interest.

A further experiment deals with CD69. The experiment in a line: Induction of CD69 in human whole blood. Type of experiment: cell-based. The settings on record: 17 hrs at 37° C., y-axis 100% set to 1 uM of resiquimod, average where assay was performed multiple times, read-out: hWB CD69 EC50. On the procedure:
The induction of Type I interferon (IFN) MX-1 genes and the B-cell activation marker CD69 are downstream events that occur upon activation of the TLR7 pathway. The following is a human whole blood assay that measures their induction in response to a TLR7 agonist.
Heparinized human whole blood was harvested from human subjects and treated with test TLR7 agonist compounds at 1 mM. The blood was diluted with RPMI 1640 media and Echo was used to predot 10 nL per well giving a final concentration of 1 uM (10 nL in 10 uL of blood). After mixing on a shaker for 30 sec, the plates were covered and placed in a 37° C. chamber for o/n=17 hrs. Fixing/lysis buffer was prepared (5×->1× in H2O, warm at 37° C.; Cat #BD 558049) and kept the perm buffer (on ice) for later use.
For surface markers staining (CD69): prepared surface Abs: 0.045 ul hCD14-FITC (ThermoFisher Cat #MHCD1401)+0.6 ul hCD19-ef450 (ThermoFisher Cat #48-0198-42)+1.5 ul hCD69-PE (cat #BD555531)+0.855 ul FACS buffer. Added 3 ul/well, spin 1000 rpm for 1 min and mixed on shaker for 30 sec, put on ice for 30 mins. Stop stimulation after 30 minutes with 70 uL of prewarmed 1× fix/lysis buffer and use Feliex mate to resuspend (15 times, change tips for each plate) and incubate at 37 C for 10 minutes.
Centrifuge at 2000 rpm for 5 minutes aspirate with HCS plate washer, mix on shaker for 30 sec and then wash with 70 uL in dPBS and pelleted 2×s (2000 rpm for 5 min) and 50 ul wash in FACS buffer pelleted 1×s (2000 rpm for 5 min). Mix on shaker for 30 sec. For Intracellular markers staining (MX-1): Add 50 ul of BD Perm buffer III and mix on shaker for 30 sec. Incubate on ice for 30 minutes (in the dark). Wash with 50 uL of FACS buffer 2× (spin @2300 rpm×5 min after perm) followed by mixing on shaker for 30 sec. Resuspended in 20 ul of FACS buffer containing MX1 antibody ( )(4812)-Alexa 647: Novus Biologicals #NBP2-43704AF647) 20 ul FACS bf+0.8 ul hIgG+0.04 ul MX-1. Spin 1000 rpm for 1 min, mix on shaker for 30 se and the samples were incubated at RT in the dark for 45 minutes followed by washing 2×FACS buffer (spin @2300 rpm×5 min after perm). Resuspend 20 ul (35 uL total per well) of FACS buffer and cover with foil and place in 4° C. to read the following day. Plates were read on iQuePlus. The results were loaded into toolset and […] curves are generated in curve master. The y-axis 100% is set to 1 uM of resiquimod.

Regarding `CCCCNc1nc(N)nc2c(-c3cccnc3)nn(Cc3ccc(CNC4CCOCC4)cc3OC)c12` [Compound 114, N7-butyl-1-[(2-methoxy-4-{[(oxan-4-yl)amino]methyl}-phenyl)methyl]-3-(pyridin-3-yl)-1H-pyrazolo[4,3-d]pyrimidine-5,7-diamine], the EC50 was 291 nM on human TLR7 and 42.7 nM in the experiment on CD69.

Regarding `CCCCNc1nc(N)nc2c(OC)nn(Cc3ccc(CNC4CCOCC4)cc3OC)c12` [Compound 115, N7-butyl-3-methoxy-1-[(2-methoxy-4-{[(oxan-4-yl)amino]methyl}phenyl)-methyl]-1H-pyrazolo[4,3-d]pyrimidine-5,7-diamine], the EC50 on human TLR7 was found to be 40.1 nM; with CD69, 8.1 nM.

For the molecule `CCCCNc1nc(N)nc2c(-c3cc[nH]n3)nn(Cc3ccc(CNC4CCOCC4)cc3OC)c12` [Compound 116, N7-butyl-1-[(2-methoxy-4-{[(oxan-4-yl)amino]methyl}-phenyl)methyl]-3-(1H-pyrazol-3-yl)-1H-pyrazolo[4,3-d]pyrimidine-5,7-diamine], the EC50 stood at 1430 nM at human TLR7 and 709 nM with CD69.

With `CCCCNc1nc(N)nc2c(CO)nn(Cc3ccc(CNC4CCOCC4)cc3OC)c12` [Compound 118, [5-amino-7-(butylamino)-1-[(2-methoxy-4-{[(oxan-4-yl)amino]methyl}phenyl)-methyl]-1H-pyrazolo[4,3-d]pyrimidin-3-yl]methanol], the results for the EC50 on human TLR7 and in the experiment on CD69 were 594 nM and 252 nM, respectively.

Take `CCCCNc1nc(N)nc2c(CO)nn(Cc3ccc(CN4CCN(CCO)CC4)cc3OC)c12` [Compound 119, 2-{4-[(4-{[5-amino-7-(butyl-amino)-3-(hydroxymethyl)-1H-pyrazolo[4,3-d]pyrimidin-l-yl]methyl}-3-methoxy-phenyl)methyl]piperazin-1-yl}ethan-1-ol]: the EC50 on human TLR7 was 433 nM; in the experiment on CD69 it was 177 nM.

For the molecule `CCCCNc1nc(N)nc2c(CO)nn(Cc3ccc(CN4CC(OC)C4)cc3OC)c12` [Compound 120, [5-amino-7-(butylamino)-1-({2-methoxy-4-[(3-methoxy-azetidin-1-yl)methyl]phenyl}-methyl)-1H-pyrazolo[4,3-d]pyrimidin-3-yl]methanol], the EC50 on human TLR7 stood at 334 nM; in the experiment on CD69, 199 nM.

In the case of `CCCCNc1nc(N)nc2c(C3=CCOC3)nn(Cc3ccc(CNC4CCOCC4)cc3OC)c12` [Compound 121, N7-butyl-3-(2,5-dihydro-furan-3-yl)-1-[(2-methoxy-4-{[(oxan-4-yl)amino]methyl}-phenyl)methyl]-1H-pyrazolo[4,3-d]pyrimidine-5,7-diamine], the 50% effective concentration (EC50) on human TLR7 was 1560 nM; with CD69, 640 nM.

As for `CCCCNc1nc(N)nc2c(CC)nn(Cc3ccc(CNC4CCOCC4)cc3OC)c12` [Compound 122, N7-butyl-3-ethyl-1-[(2-methoxy-4-{[(oxan-4-yl)amino]methyl}phenyl)-methyl]-1H-pyrazolo[4,3-d]pyrimidine-5,7-diamine], the EC50 amounted to 203 nM on human TLR7 and 88.7 nM in the experiment with CD69.

Turning to `CCCCNc1nc(N)nc2c(C(C)C)nn(Cc3ccc(CNC4CCOCC4)cc3OC)c12` [Compound 123, N7-butyl-1-[(2-methoxy-4-{[(oxan-4-yl)amino]methyl}-phenyl)methyl]-3-(propan-2-yl)-1H-pyrazolo[4,3-d]pyrimidine-5,7-diamine], the EC50 amounted to 1040 nM on human TLR7 and 418 nM in the experiment on CD69.

For the molecule `CCCCNc1nc(N)nc2c(C3CCOC3)nn(Cc3ccc(CNC4CCOCC4)cc3OC)c12` (centres unmarked) [Compound 124, N7-butyl-1-[(2-methoxy-4-{[(oxan-4-yl)amino]methyl}-phenyl)methyl]-3-(oxolan-3-yl)-1H-pyrazolo[4,3-d]pyrimidine-5,7-diamine], the EC50 at human TLR7 was found to be 798 nM; with CD69, 339 nM.

On to `CCC[C@@H](CO)Nc1nc(N)nc2c(C)nn(Cc3ccc(CN4CCN(CCO)CC4)cc3OC)c12` [Compound 125, (2S)-2-({5-amino-1-[(4-{[4-(2-hydroxyethyl)piperazin-1-yl]methyl}-2-methoxy-phenyl)methyl]-3-methyl-1H-pyrazolo[4,3-d]pyrimidin-7-yl}amino)pentan-1-ol], for which the EC50 is 236 nM on human TLR7 and 237 nM in the experiment on CD69.

`CCC[C@@H](CCO)Nc1nc(N)nc2c(C)nn(Cc3ccc(CO)cc3OC)c12` [Compound 126, (3S)-3-[(5-amino-1-{[4-(hydroxymethyl)-2-methoxyphenyl]methyl}-3-methyl-1H-pyrazolo[4,3-d]pyrimidin-7-yl)amino]hexan-1-ol]: the EC50 at human TLR7 worked out at 63.4 nM; in the experiment with CD69 it was 90.2 nM.

With `CCC[C@@H](CCO)Nc1nc(N)nc2c(C)nn(Cc3ccc(CNC4CCOCC4)cc3OC)c12` [Compound 127, (3S)-3-({5-amino-1-[(2-methoxy-4-{[(oxan-4-yl)amino]methyl}phenyl)-methyl]-3-methyl-1H-pyrazolo[4,3-d]pyrimidin-7-yl}amino)hexan-1-ol], the EC50 at human TLR7 was 21.8 nM; with CD69, 2.7 nM.

Take `CCC[C@@H](CCO)Nc1nc(N)nc2c(C)nn(Cc3ccc(CN4CCN(CCO)CC4)cc3OC)c12` [Compound 128, (3S)-3-({5-amino-1-[(4-{[4-(2-hydroxyethyl)piperazin-1-yl]methyl}-2-methoxy-phenyl)methyl]-3-methyl-1H-pyrazolo[4,3-d]pyrimidin-7-yl}amino)hexan-1-ol]: the results for the EC50 on human TLR7 and in the experiment with CD69 were 7.2 nM and 1.2 nM, respectively.

Regarding `CCC[C@@H](CCO)Nc1nc(N)nc2c(C)nn(Cc3ccc(CN4CCN(C)CC4)cc3OC)c12` [Compound 129, (3S)-3-{[5-amino-1-({2-methoxy-4-[(4-methyl-piperazin-1-yl)methyl]-phenyl}methyl)-3-methyl-1H-pyrazolo[4,3-d]pyrimidin-7-yl]amino}hexan-1-ol], the EC50 turned out to be 5.93 nM on human TLR7 and 3.5 nM in the experiment on CD69.

Regarding `CCC[C@@H](CCO)Nc1nc(N)nc2c(C)nn(Cc3ccc(CN[C@@H]4CCCOC4)cc3OC)c12` [Compound 130, (3S)-3-[(5-amino-1-{[2-methoxy-4-({[(3R)-oxan-3-yl]amino}methyl)phenyl]-methyl}-3-methyl-1H-pyrazolo[4,3-d]pyrimidin-7-yl)amino]hexan-1-ol], the concentration for a half-maximal effect (EC50) on human TLR7 was 93.8 nM; in the experiment with CD69, 7.5 nM.
